In the supplement of paper PMC10307832:

Key:
Experiment in all cases: relative viability (nuclei count vs DMSO), 5 days (fraction); higher = more cells survive
[1] = compound: CCN(CCO)CCCC(C)Nc1ccnc2cc(Cl)ccc12 [Hydroxychloroquine] + COc1cc2c(Oc3ccc(NC(=O)C4(C(=O)Nc5ccc(F)cc5)CC4)cc3F)ccnc2cc1OCCCN1CCOCC1 [Foretinib] (partner 0.25 µM)
Summary of the method: (§1)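 Relative viability was taken as the ratio of nuclei in treated wells to nuclei in vehicle wells. Lung cancer cell lines in 1536-well plates received compounds by pin tool one day after seeding, either one drug alone or a fixed anchor-drug dose plus five library-drug doses (not always all listed) in √10 steps. Nuclei were counted on 4× images after 5 days of treatment, and values are medians of duplicate plates.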

[2] = compound: CCN(CCO)CCCC(C)Nc1ccnc2cc(Cl)ccc12 [Hydroxychloroquine] + COc1cccc2cc(-c3nc([C@H]4CC[C@H](C(=O)O)CC4)n4ncnc(N)c34)[nH]c12 [OSI-027] (partner 0.5 µM)
Summary of the method: as §1

[3] = compound: CCN(CCO)CCCC(C)Nc1ccnc2cc(Cl)ccc12 [Hydroxychloroquine] + NC(=O)Nc1cc(-c2cccc(F)c2)sc1C(=O)N[C@H]1CCCNC1 [AZD7762] (partner 0.2 µM)
Summary of the method: as §1

[4] = compound: CCN(CCO)CCCC(C)Nc1ccnc2cc(Cl)ccc12 [Hydroxychloroquine] + Nc1nc2[nH]cc(CCc3ccc(C(=O)N[C@@H](CCC(=O)O)C(=O)O)cc3)c2c(=O)[nH]1 [Pemetrexed] (partner 0.2 µM)
Summary of the method: as §1

| Cell Line | relative viability ([1]; first compound 0.5 µM) | relative viability ([1]; first compound 1.581 µM) | relative viability ([1]; first compound 5 µM) | relative viability ([1]; first compound 15.81 µM) | relative viability ([1]; first compound 50 µM) | relative viability ([2]; first compound 0.5 µM) | relative viability ([2]; first compound 1.581 µM) | relative viability ([2]; first compound 5 µM) | relative viability ([2]; first compound 15.81 µM) | relative viability ([2]; first compound 50 µM) | relative viability ([3]; first compound 0.5 µM) | relative viability ([3]; first compound 1.581 µM) | relative viability ([3]; first compound 5 µM) | relative viability ([3]; first compound 15.81 µM) | relative viability ([3]; first compound 50 µM) | relative viability ([4]; first compound 0.5 µM) | relative viability ([4]; first compound 1.581 µM) | relative viability ([4]; first compound 5 µM) | relative viability ([4]; first compound 15.81 µM) | relative viability ([4]; first compound 50 µM) |
| --- | --- | --- | --- | --- | --- | --- | --- | --- | --- | --- | --- | --- | --- | --- | --- | --- | --- | --- | --- | --- |
| LCLC-103H | 0.776 | 0.707 | 0.848 | 0.893 | 0.887 | 0.482 | 0.488 | 0.547 | 0.465 | 0.562 | 0.855 | 0.672 | 0.76 | 0.743 | 0.827 | 0.439 | 0.504 | 0.368 | 0.455 | 0.473 |
| NCI-H2405 | 1.11 | 0.975 | 1.05 | 1.02 | 1.05 | 0.626 | 0.55 | 0.652 | 0.627 | 0.658 | 0.879 | 0.841 | 0.717 | 0.675 | 0.768 | 1.07 | 1.05 | 0.984 | 0.515 | 1.03 |
| HCC-15 | 1.1 | 1.04 | 1.04 | 1.04 | 1.05 | 0.754 | 0.672 | 0.634 | 0.656 | 0.724 | 1.29 | 1.15 | 1.11 | 1.35 | 1.49 | 0.231 | 0.241 | 0.205 | 0.226 | 0.231 |
| RERF-LC-KJ | 0.757 | 0.825 | 0.872 | 0.918 | 0.941 | 0.587 | 0.5 | 0.537 | 0.631 | 0.609 | 0.959 | 0.961 | 1.01 | 0.91 | 1.08 | 0.448 | 0.466 | 0.457 | 0.489 | 0.467 |
| NCI-H1944 | 0.951 | 0.936 | 0.775 | 0.89 | 0.785 | 0.445 | 0.33 | 0.418 | 0.337 | 0.453 | 0.828 | 0.75 | 0.513 | 0.432 | 0.455 | 0.691 | 0.586 | 0.531 | 0.586 | 0.648 |
| HARA | 0.957 | 0.918 | 0.891 | 0.921 | 1.07 | 0.608 | 0.416 | 0.469 | 0.486 | 0.435 | 0.263 | 0.373 | 0.405 | 0.219 | 0.376 | 0.286 | 0.231 | 0.233 | 0.263 | 0.251 |
| NCI-H2126 | 1.21 | 1.11 | 1.33 | 1.08 | 1.1 | 0.625 | 0.631 | 0.763 | 0.606 | 0.702 | 1.07 | 1.12 | 0.984 | 1.08 | 1.03 | 0.709 | 0.636 | 0.666 | 0.653 | 0.716 |
| LXF-289 | 0.96 | 0.959 | 0.969 | 1.03 | 1.08 | 0.78 | 0.77 | 0.751 | 0.781 | 0.792 | 1.01 | 1.08 | 1.05 | 1.06 | 1.17 | 0.886 | 0.908 | 0.92 | 0.929 | 0.927 |
| NCI-H1395 | 1.06 | 0.989 | 0.872 | 0.963 | 1.02 | 0.67 | 0.566 | 0.639 | 0.638 | 0.549 | 0.393 | 0.465 | 0.419 | 0.375 | 0.426 | 0.83 | 0.936 | 0.717 | 0.793 | 0.779 |
| NCI-H2170 | 1.04 | 1.04 | 0.973 | 1.01 | 1.1 | 0.63 | 0.776 | 0.685 | 0.702 | 0.806 | 0.925 | 0.918 | 0.867 | 0.882 | 1.09 | 0.341 | 0.265 | 0.255 | 0.233 | 0.29 |
